Data taken from PubChem BioAssay (NCI).
Values joined by “and” are separate entries in the source; they are usually repeats but may differ in a detail not shown here. Equal values may be shown once.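 These data come from cells grown in 96-well plates and exposed to compound for 48 hours at five concentrations. GI50 marks 50% less growth. TGI: concentration producing complete growth inhibition.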

What was measured:
Test in all cases: inhibition of tumour cell growth, NCI panel, 48 h
[1] = test system: MDA-MB-468 breast
[2] = test system: 786-0 renal
[3] = test system: A498 renal
[4] = test system: A549 NSCLC
[5] = test system: ACHN renal
[6] = test system: BT-549 breast
[7] = test system: CAKI-1 renal
[8] = test system: CCRF-CEM leukemia
[9] = test system: COLO 205 colon
[10] = test system: DU-145 prostate
[11] = test system: EKVX NSCLC
[12] = test system: HCC-2998 colon
[13] = test system: HCT-116 colon
[14] = test system: HCT-15 colon
[15] = test system: HL-60(TB) leukemia
[16] = test system: HOP-62 NSCLC
[17] = test system: HOP-92 NSCLC
[18] = test system: HS 578T breast
[19] = test system: HT29 colon
[20] = test system: IGROV1 ovarian
[21] = test system: K-562 leukemia
[22] = test system: KM12 colon
[23] = test system: LOX IMVI melanoma
[24] = test system: M14 melanoma
[25] = test system: MALME-3M melanoma
[26] = test system: MCF7 breast
[27] = test system: MDA-MB-435
[28] = test system: MOLT-4 leukemia
[29] = test system: NCI-H226 lung
[30] = test system: NCI-H23 lung
[31] = test system: NCI-H460 lung
[32] = test system: NCI-H522 lung
[33] = test system: NCI/ADR-RES ovarian
[34] = test system: OVCAR-3 ovarian
[35] = test system: OVCAR-4 ovarian
[36] = test system: OVCAR-5 ovarian
[37] = test system: OVCAR-8 ovarian
[38] = test system: PC-3 prostate
[39] = test system: RPMI-8226 leukemia
[40] = test system: RXF 393 renal
[41] = test system: SF-268 CNS
[42] = test system: SF-295 CNS
[43] = test system: SF-539 CNS
[44] = test system: SK-MEL-28 melanoma
[45] = test system: SK-MEL-5 melanoma
[46] = test system: SK-OV-3 ovarian
[47] = test system: SN12C renal
[48] = test system: SNB-19 CNS
[49] = test system: SR leukemia
[50] = test system: SW-620 colon
[51] = test system: T-47D breast
[52] = test system: TK-10 renal
[53] = test system: U251 CNS
[54] = test system: UACC-257 melanoma
[55] = test system: UACC-62 melanoma

`Nc1ncc(-c2ccc3ncnc(N4CCc5cc(F)c(Cl)cc54)c3c2)cn1` was tested, and the GI50 [1] was 0.804 µM and the TGI [1] was 3.04 µM.
For `O=C1C(=O)c2c(nc3ccc(Br)cn23)-c2ccccc21`, the GI50 [1] was 1.53 µM and the TGI [1] was 3.22 µM.
Work on `O=C(c1ccccc1)c1ccc(Oc2ccc([N+](=O)[O-])cc2[N+](=O)[O-])cc1` yielded a GI50 [1] of 1.73 µM and a TGI [1] of 3.38 µM.
`O=[N+]([O-])c1ccccc1N/N=C\c1c[nH]c2ccccc12` showed a GI50 [1] of 1.13 µM and a TGI [1] of 5.85 µM.
With `COC1CCN(C(=O)c2cc(Cc3n[nH]c(=O)c4ccccc34)ccc2F)CC1` the GI50 [1] was 30 µM and the TGI [1] was greater than 100 µM.
Molecule `Cc1ccc(-c2cc3c(SCC(=O)Nc4cc(C(F)(F)F)ccc4Cl)nccn3n2)cc1` has a GI50 [1] greater than 100 µM and a TGI [1] greater than 100 µM.
In the case of `CC1=CC(=C(c2ccc(N)cc2)c2ccc(N)cc2)C=CC1=N`, the GI50 [1] is reported as 0.373 µM and 0.411 µM and the TGI [1] is reported as 4.9 µM and 4.3 µM.
Molecule `Clc1ccc(-c2nc3c4c(-c5ccccc5)c(-c5ccccc5)n(Cc5ccccc5)c4ncn3n2)cc1` has a GI50 [2] of 12.6 µM, a TGI [2] of 93.3 µM and a GI50 [3] of 23 µM. For the same molecule, the TGI [3] was 63 µM, the GI50 [4] was 20.6 µM and the TGI [4] was greater than 100 µM. It also gave a GI50 [5] of 20.8 µM, a TGI [5] of 79.7 µM and a GI50 [6] of 4.35 µM. It also gave a TGI [6] of 22.5 µM, a GI50 [7] of 21.4 µM and a TGI [7] of 89.2 µM. For the same molecule, the GI50 [8] was 9.15 µM, the TGI [8] was 51 µM and the GI50 [9] was 4.66 µM. For the same molecule, the TGI [9] was 16.8 µM, the GI50 [10] was 19.1 µM and the TGI [10] was greater than 100 µM. For the same molecule, the GI50 [11] was 4.6 µM, the TGI [11] was 48.7 µM and the GI50 [12] was 6.37 µM. The TGI [12] was 39.7 µM, the GI50 [13] was 3.53 µM and the TGI [13] was 35.2 µM. The GI50 [14] was 20.5 µM, the TGI [14] was greater than 100 µM and the GI50 [15] was 3.08 µM. The TGI [15] was 15.5 µM, the GI50 [16] was 16.1 µM and the TGI [16] was 38.4 µM. For the same molecule, the GI50 [17] was 1.9 µM, the TGI [17] was 9.53 µM and the GI50 [18] was 9.38 µM. For the same molecule, the TGI [18] was 38.2 µM, the GI50 [19] was 6.18 µM and the TGI [19] was greater than 100 µM. The GI50 [20] was 8.02 µM, the TGI [20] was 85.8 µM and the GI50 [21] was 4.84 µM. For the same molecule, the TGI [21] was greater than 100 µM, the GI50 [22] was 5.17 µM and the TGI [22] was 36.5 µM. The GI50 [23] was 10.9 µM, the TGI [23] was 25.2 µM and the GI50 [24] was 12 µM. It also gave a TGI [24] of 77.7 µM, a GI50 [25] of 2.75 µM and a TGI [25] of 9.5 µM. The GI50 [26] was 8.31 µM, the TGI [26] was 61.8 µM and the GI50 [27] was 4.92 µM. For the same molecule, the TGI [27] was 71.3 µM, the GI50 [1] was 2.84 µM and the TGI [1] was 10.3 µM. For the same molecule, the GI50 [28] was 11.7 µM, the TGI [28] was 58.2 µM and the GI50 [29] was 16.3 µM. It also gave a TGI [29] of 56.9 µM, a GI50 [30] of 6.88 µM and a TGI [30] of 44.4 µM. For the same molecule, the GI50 [31] was 8.24 µM, the TGI [31] was 35.4 µM and the GI50 [32] was 5.95 µM. For the same molecule, the TGI [32] was 43.7 µM, the GI50 [33] was 24.2 µM and the TGI [33] was 97 µM. It also gave a GI50 [34] of 4.76 µM, a TGI [34] greater than 100 µM and a GI50 [35] of 10.3 µM. The TGI [35] was greater than 100 µM, the GI50 [36] was 21.3 µM and the TGI [36] was 90.3 µM. It also gave a GI50 [37] of 12.5 µM, a TGI [37] greater than 100 µM and a GI50 [38] of 3.51 µM. The TGI [38] was 97.3 µM, the GI50 [39] was 2.46 µM and the TGI [39] was 8.69 µM. The GI50 [40] was 14.2 µM, the TGI [40] was 39.9 µM and the GI50 [41] was 12.2 µM. For the same molecule, the TGI [41] was greater than 100 µM, the GI50 [42] was 11.5 µM and the TGI [42] was 25.7 µM. The GI50 [43] was 15.8 µM, the TGI [43] was 33.5 µM and the GI50 [44] was 5.33 µM. The TGI [44] was 47.1 µM, the GI50 [45] was 3.26 µM and the TGI [45] was 12.9 µM. It also gave a GI50 [46] of 12.8 µM, a TGI [46] of 46.7 µM and a GI50 [47] of 7.73 µM. The TGI [47] was 46 µM, the GI50 [48] was 4.8 µM and the TGI [48] was greater than 100 µM. For the same molecule, the GI50 [49] was 13 µM, the TGI [49] was 36.5 µM and the GI50 [50] was 12.5 µM. For the same molecule, the TGI [50] was greater than 100 µM, the GI50 [51] was 3.5 µM and the TGI [51] was 62.5 µM. It also gave a GI50 [52] of 19 µM, a TGI [52] greater than 100 µM and a GI50 [53] of 4.58 µM. The TGI [53] was 33.5 µM, the GI50 [54] was 4.17 µM and the TGI [54] was 34.2 µM. It also gave a GI50 [55] of 3.59 µM and a TGI [55] of 15.2 µM.
In the case of `NC(=O)c1ccc(NN=O)nc1`, the GI50 [1] is reported as greater than 100 µM and the TGI [1] is reported as greater than 100 µM.
`Nc1nc2c(s1)CCc1c-2c(Br)n(Cc2ccccc2)c1Br` showed a GI50 [1] of 2.84 µM and a TGI [1] of 17.2 µM.
With `c1cc2[nH]ncc2cc1-c1nc2ccc3[nH]ncc3c2c2c1CCCC2` the GI50 [1] was 0.403 µM and the TGI [1] was 3.16 µM.
For `COc1ccc(C(=O)COC(=O)[C@H](C[Se][Se]C[C@H](NC(=O)c2ccc(Br)cc2F)C(=O)OCC(=O)c2ccc(OC)cc2)NC(=O)c2ccc(Br)cc2F)cc1`, the GI50 [1] was 1.72 µM and the TGI [1] was 3.85 µM.
Molecule `Clc1ccc2c(c1)N(c1ncnc3ccc(-c4cnc5[nH]ccc5c4)cc13)CC2` has a GI50 [1] of 0.38 µM and a TGI [1] of 13.7 µM.
For `O=C1Nc2c(C(F)(F)F)cccc2[C@@]1(c1ccc(O)cc1)c1ccc(OC(F)(F)F)cc1`, the GI50 [1] was less than 0.01 µM and the TGI [1] was less than 0.01 µM.
In the case of `Cl.Fc1c[c-]c(-c2ccccn2)c(F)c1.[Pt].c1ccc(P(c2ccccc2)C([PH+](c2ccccc2)c2ccccc2)[PH+](c2ccccc2)c2ccccc2)cc1`, the GI50 [1] is reported as 2.69 µM and the TGI [1] is reported as 19.5 µM.
